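Exposure lasted 48 hours, with cells grown in 96-well plates and compounds tested at five concentrations. GI50 marks 50% less growth. At the TGI there is no net growth.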
What was measured:
Assay in all cases: inhibition of tumour cell growth, NCI panel, 48 h
[1] = test system: BT-549 breast
[2] = test system: DU-145 prostate
[3] = test system: HCC-2998 colon
[4] = test system: HOP-62 NSCLC
[5] = test system: HS 578T breast
[6] = test system: MCF7 breast
[7] = test system: SK-MEL-2 melanoma
[8] = test system: SK-MEL-28 melanoma
[9] = test system: SK-MEL-5 melanoma
[10] = test system: SNB-19 CNS

| SMILES | GI50 [1] [µM] | TGI [1] [µM] | GI50 [2] [µM] | TGI [2] [µM] | GI50 [3] [µM] | TGI [3] [µM] | GI50 [4] [µM] | TGI [4] [µM] | GI50 [5] [µM] | TGI [5] [µM] | GI50 [6] [µM] | TGI [6] [µM] | GI50 [7] [µM] | TGI [7] [µM] | GI50 [8] [µM] | TGI [8] [µM] | GI50 [9] [µM] | TGI [9] [µM] | GI50 [10] [µM] | TGI [10] [µM] |
| --- | --- | --- | --- | --- | --- | --- | --- | --- | --- | --- | --- | --- | --- | --- | --- | --- | --- | --- | --- | --- |
| CCCC(=O)Nc1c(I)cc(I)c(CC(CC)C(=O)O)c1I (configuration not stated) | > 100 | > 100 | > 100 | > 100 | > 100 | > 100 | > 100 | > 100 | > 100 | > 100 | > 100 | > 100 | > 100 | > 100 | > 100 | > 100 | > 100 | > 100 | > 100 | > 100 |
| S=C1SCN(C2CCCCCCCCCCC2)CN1C1CCCCCCCCCCC1 |  | > 100 |  | > 100 |  |  |  | > 100 |  | > 100 |  | > 100 |  | > 100 |  | > 100 |  | > 100 |  | > 100 |
| CCCCCC(=C/c1ccccc1)/C=N/N=C(N)N | 1.65 | 3.02 | 1.57 | 2.94 |  |  | 1.63 | 3.31 | 1.8 | 4.18 | 1.34 | 2.74 | 1.7 | 3.2 | 1.65 | 3.06 | 1.66 | 3.04 | 1.85 | 4.15 |
| C[C@@H]1OC(=O)NN=C1c1ccc(-c2ccc(F)cc2)c(C(F)(F)F)c1 | 7.3 | 21.2 | 1.57 | 20.7 | 10.6 | 23.1 | 10.7 | 26.2 |  | 3.37 | 10.1 | 25 | 0.141 | 13.1 | 10.5 | 22.6 | 2.28 | 9.01 | 11 | 23.3 |
| O=C1c2ccccc2-c2c1c1ccc([N+](=O)[O-])cc1c(=O)n2CCCn1ccnc1 | 0.0359 | 0.96 | < 0.0152 | 0.0542 | 2 | 5.57 | 0.173 | 0.708 | 0.605 | 10.2 | < 0.018 | 4.24 | 1.06 | 3.27 | 0.352 | 10.8 | < 0.019 | 0.104 | 0.358 | > 34.4 |
| CCCc1n(Cc2ccc3ccccc3n2)cc[n+]1Cc1ccc2ccccc2c1 | 0.23 | 1.43 | 1.52 | 12.8 | 0.564 | 2.33 | 1.63 | 5.38 | 2.13 | 9.42 | 0.647 | 4.7 | 1.06 | 2.85 | 1.24 | 6.23 | 0.466 | 1.69 | 0.551 | 11.4 |
| CC1(C)OC2COC(c3[nH]nc4c(=O)[nH]c(=O)[nH]c34)C2O1 (configuration not stated) |  | > 100 |  | > 100 |  |  |  | > 100 |  | > 100 |  | > 100 |  | > 100 |  | > 100 |  | > 100 |  | > 100 |
| CN[C@H]1CC[C@]23C[C@]24CC[C@]2(C)[C@@H]([C@H](C)N(C)C)CC[C@@]2(C)[C@@H]4CC[C@H]3C1(C)C |  | 31.9 |  | 28.4 |  | 28.7 |  |  |  | 48 |  | 36.2 |  | 40 |  | 25.8 |  | 29.4 |  | 43.3 |
| NC(N)=NC(N)=Nc1ccc(S(N)(=O)=O)cc1 |  | > 100 |  | > 100 |  | > 100 |  | > 100 |  | > 100 |  | > 100 |  | > 100 |  | > 100 |  | > 100 |  | > 100 |
| CCC(=O)Nc1ncnc2ncn(C(=O)CC)c12 |  | > 100 |  | > 100 |  | > 100 |  | > 100 |  | > 100 |  | > 100 |  | > 100 |  | > 100 |  |  |  | > 100 |
| O=C(Nc1ccc(-n2ccc3c(NC(=O)c4ccccc4)nccc32)cc1)c1ccc(N2CCOCC2)c(C(F)(F)F)c1 | 4.73 | > 67.9 | 0.105 | > 87.6 | 0.6 | > 53 | 1.74 | 23.1 | 1.81 | > 76.5 | 0.0734 | 25 | 0.236 | 15.8 | 0.275 | > 47.4 | 0.0928 | 10.8 | 0.481 | > 81 |
| O=C(O)CNC(=O)C1NC(C(F)(F)F)(C(F)(F)F)OC1(C(F)(F)F)C(F)(F)F (configuration not stated) |  | > 100 |  | > 100 |  |  |  | > 100 |  | > 100 |  | > 100 |  | > 100 |  | > 100 |  | > 100 |  | > 100 |
| COC1C(O)CC(OC2CC(OC3CC(O[C@@H]4C(=O)c5c(cc6cc(OC7CC(OC8CC(O)C(O)C(C)O8)C(O)C(C)O7)c(C)c(O)c6c5O)CC4[C@H](OC)[C@@H](O)C(C)=O)OC(C)C3O)OC(C)C2O)OC1C (some centres not stated) | < 0.0292 | 12.5 | 0.0127 | > 33.3 | 0.00349 | 0.0258 | 0.0171 | 0.154 | 0.0307 | > 33.3 | 0.00649 | > 33.3 | 0.0167 | 0.0492 | 0.014 | 0.396 | 0.00993 | 0.0392 | 0.0099 | > 33.3 |
| COc1ccccc1N1CCN(CCCOc2ccc(C(=O)/C=C3/C(=O)Nc4ccccc43)cc2)CC1 | 4.42 | 16.1 | 15 | 38.1 | 13.9 | 32 | 16.1 | 54.8 | 22.5 | > 52.7 | 7.17 | 31.8 | 5.54 | > 80.4 | 14.6 | 33.4 | 6.9 | 18.4 | 40.6 | > 100 |
